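48-hour exposure; five concentrations; linearly interpolated endpoints. GI50: concentration for 50% inhibition of growth. The concentration for full growth arrest is given as TGI.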
Columns and labels:
Assay in all cases: NCI anticancer screen, dose series, 48 h
[1] = system: SF-268 CNS
[2] = system: RXF 393 renal
[3] = system: HOP-92 NSCLC
[4] = system: SR leukemia
[5] = system: EKVX NSCLC
[6] = system: ACHN renal
[7] = system: SN12C renal
[8] = system: 786-0 renal
[9] = system: HS 578T breast
[10] = system: U251 CNS
[11] = system: DU-145 prostate
[12] = system: NCI-H522 lung
[13] = system: PC-3 prostate
[14] = system: MDA-MB-231 breast
[15] = system: HCT-15 colon
[16] = system: LOX IMVI melanoma
[17] = system: SNB-19 CNS
[18] = system: SW-620 colon
[19] = system: KM12 colon
[20] = system: M14 melanoma
[21] = system: UACC-257 melanoma
[22] = system: T-47D breast
[23] = system: UO-31 renal
[24] = system: HCC-2998 colon
[25] = system: COLO 205 colon
[26] = system: SF-539 CNS
[27] = system: MCF7 breast
[28] = system: RPMI-8226 leukemia
[29] = system: SNB-75 CNS
[30] = system: A498 renal
[31] = system: OVCAR-3 ovarian
[32] = system: MALME-3M melanoma
[33] = system: HOP-62 NSCLC
[34] = system: NCI-H226 lung
[35] = system: HCT-116 colon
[36] = system: NCI-H23 lung
[37] = system: UACC-62 melanoma
[38] = system: IGROV1 ovarian
[39] = system: NCI-H460 lung
[40] = system: SF-295 CNS
[41] = system: MDA-MB-435
[42] = system: TK-10 renal
[43] = system: CAKI-1 renal
[44] = system: K-562 leukemia
[45] = system: HT29 colon
[46] = system: SK-MEL-5 melanoma
[47] = system: SK-MEL-28 melanoma
[48] = system: NCI/ADR-RES ovarian
[49] = system: CCRF-CEM leukemia
[50] = system: MOLT-4 leukemia
[51] = system: OVCAR-8 ovarian
[52] = system: SK-MEL-2 melanoma
[53] = system: OVCAR-5 ovarian
[54] = system: SK-OV-3 ovarian
[55] = system: OVCAR-4 ovarian
[56] = system: BT-549 breast
[57] = system: A549 NSCLC

SMILES: COc1ccc(CNCCCN2C(=O)c3ccc4c5c(ccc(c35)C2=O)C(=O)N(CCCNCc2ccc(OC)c(OC)c2OC)C4=O)c(OC)c1OC
- GI50 [1]: 0.117 µM
- TGI [1]: 0.353 µM
- GI50 [2]: 0.0823 µM
- TGI [2]: 0.176 µM
- GI50 [3]: 0.108 µM
- TGI [3]: 0.328 µM
- GI50 [4]: 0.165 µM
- TGI [4]: 0.644 µM
- GI50 [5]: 0.0929 µM
- TGI [5]: 0.176 µM
- GI50 [6]: 0.107 µM
- TGI [6]: 0.257 µM
- GI50 [7]: 0.0821 µM
- TGI [7]: 0.157 µM
- GI50 [8]: 0.333 µM
- TGI [8]: 1.02 µM
- GI50 [9]: 0.568 µM
- TGI [9]: 3.15 µM
- GI50 [10]: 0.0879 µM
- TGI [10]: 0.174 µM
- GI50 [11]: 0.093 µM
- TGI [11]: 0.185 µM
- GI50 [12]: 0.0804 µM
- TGI [12]: 0.163 µM
- GI50 [13]: 0.109 µM
- TGI [13]: 0.293 µM
- GI50 [14]: 0.125 µM
- TGI [14]: 0.398 µM
- GI50 [15]: 0.244 µM
- TGI [15]: 0.952 µM
- GI50 [16]: 0.0795 µM
- TGI [16]: 0.155 µM
- GI50 [17]: 0.0877 µM
- TGI [17]: 0.18 µM
- GI50 [18]: 0.0932 µM
- TGI [18]: 0.225 µM
- GI50 [19]: 0.0792 µM
- TGI [19]: 0.168 µM
- GI50 [20]: 0.0855 µM
- TGI [20]: 0.162 µM
- GI50 [21]: 0.0921 µM
- TGI [21]: 0.167 µM
- GI50 [22]: 0.0983 µM
- TGI [22]: 0.213 µM
- GI50 [23]: 0.585 µM
- TGI [23]: 1.22 µM
- GI50 [24]: 0.0957 µM
- TGI [24]: 0.187 µM
- GI50 [25]: 0.0524 µM
- TGI [25]: 0.12 µM
- GI50 [26]: 0.102 µM
- TGI [26]: 0.235 µM
- GI50 [27]: 0.0811 µM
- TGI [27]: 0.219 µM
- GI50 [28]: 0.145 µM
- TGI [28]: 0.56 µM
- GI50 [29]: 0.139 µM
- TGI [29]: 0.442 µM
- GI50 [30]: 0.61 µM
- TGI [30]: 1.25 µM
- GI50 [31]: 0.0888 µM
- TGI [31]: 0.23 µM
- GI50 [32]: 0.0765 µM
- TGI [32]: 0.151 µM
- GI50 [33]: 0.171 µM
- TGI [33]: 0.729 µM
- GI50 [34]: 0.337 µM
- TGI [34]: 1.1 µM
- GI50 [35]: 0.0773 µM
- TGI [35]: 0.169 µM
- GI50 [36]: 0.0936 µM
- TGI [36]: 0.201 µM
- GI50 [37]: 0.093 µM
- TGI [37]: 0.182 µM
- GI50 [38]: 0.0795 µM
- TGI [38]: 0.189 µM
- GI50 [39]: 0.121 µM
- TGI [39]: 0.336 µM
- GI50 [40]: 0.119 µM
- TGI [40]: 0.331 µM
- GI50 [41]: 0.0925 µM
- TGI [41]: 0.177 µM
- GI50 [42]: 0.0981 µM
- TGI [42]: 0.269 µM
- GI50 [43]: 0.671 µM
- TGI [43]: 1.95 µM
- GI50 [44]: 0.168 µM
- TGI [44]: 0.515 µM
- GI50 [45]: 0.0522 µM
- TGI [45]: 0.244 µM
- GI50 [46]: 0.0792 µM
- TGI [46]: 0.147 µM
- GI50 [47]: 0.508 µM
- TGI [47]: 1.12 µM
- GI50 [48]: 1.01 µM
- TGI [48]: 3.01 µM
- GI50 [49]: 0.137 µM
- TGI [49]: 2.04 µM
- GI50 [50]: 0.121 µM
- TGI [50]: 0.291 µM
- GI50 [51]: 0.0914 µM
- TGI [51]: 0.242 µM
- GI50 [52]: 0.0911 µM
- TGI [52]: 0.191 µM
- GI50 [53]: 0.108 µM
- TGI [53]: 0.25 µM
- GI50 [54]: 0.264 µM
- TGI [54]: 0.848 µM
- GI50 [55]: 0.0599 µM
- TGI [55]: 0.127 µM
- GI50 [56]: 0.262 µM
- TGI [56]: 0.503 µM
- GI50 [57]: 0.103 µM
- TGI [57]: 0.231 µM
